Reference: the NIST ThermoML archive (doi:10.1016/j.jct.2019.01.021)

Assay: molar heat capacity at constant pressure
Settings: 101.33 kPa, Small (less than 1 g) adiabatic calorimetry

N.NS(=O)(=O)O [ammonium sulfamate]
Settings	molar heat capacity at constant pressure [J/K/mol]
254.34 K, Crystal 2	145.58
254.54 K, Crystal 1	146.89
254.58 K, Crystal 1	148.65
255.05 K, Crystal 1	140.26
255.16 K, Crystal 1	140.01
255.17 K, Crystal 1	141.54
255.56 K, Crystal 1	139.82
255.74 K, Crystal 1	139.92
256 K, Crystal 1	139.89
256.07 K, Crystal 1	140.15
256.32 K, Crystal 1	140.33
256.58 K, Crystal 1	140.36
256.83 K, Crystal 1	140.15
256.9 K, Crystal 1	140.4
257.09 K, Crystal 1	140.26
257.48 K, Crystal 1	140.61
257.6 K, Crystal 1	140.56
257.65 K, Crystal 1	140.39
258.06 K, Crystal 1	140.66
258.1 K, Crystal 1	140.61
258.48 K, Crystal 1	140.51
258.61 K, Crystal 1	140.63
258.65 K, Crystal 1	140.92
259.12 K, Crystal 1	140.78
259.23 K, Crystal 1	140.91
259.3 K, Crystal 1	140.91
259.63 K, Crystal 1	141.01
259.81 K, Crystal 1	141.1
260 K, Crystal 1	141.26
260.12 K, Crystal 1	141.07
260.15 K, Crystal 1	141.06
260.39 K, Crystal 1	141.17
260.66 K, Crystal 1	141.25
260.95 K, Crystal 1	141.34
260.97 K, Crystal 1	141.54
261.17 K, Crystal 1	141.38
261.55 K, Crystal 1	141.5
261.68 K, Crystal 1	141.47
261.77 K, Crystal 1	141.54
262.13 K, Crystal 1	141.71
262.19 K, Crystal 1	141.78
262.61 K, Crystal 1	141.89
262.71 K, Crystal 1	141.89
262.73 K, Crystal 1	141.96
263.3 K, Crystal 1	141.95
263.44 K, Crystal 1	142.09
264.27 K, Crystal 1	142.38
265.1 K, Crystal 1	142.55
265.93 K, Crystal 1	142.78
266.76 K, Crystal 1	143.13
267.59 K, Crystal 1	143.22
268.42 K, Crystal 1	143.39
269.25 K, Crystal 1	143.62
270 K, Crystal 1	144.09
270.08 K, Crystal 1	143.91
270.91 K, Crystal 1	144.17
271.74 K, Crystal 1	144.43
272.58 K, Crystal 1	144.63
273.41 K, Crystal 1	144.84
274.25 K, Crystal 1	145.06
275.08 K, Crystal 1	145.36
275.94 K, Crystal 1	145.56
276.77 K, Crystal 1	145.78
277.6 K, Crystal 1	145.99
278.44 K, Crystal 1	146.2
279.28 K, Crystal 1	146.42
280 K, Crystal 1	146.75
280.11 K, Crystal 1	146.67
280.95 K, Crystal 1	147.01
281.79 K, Crystal 1	147.27
282.63 K, Crystal 1	147.37
283.47 K, Crystal 1	147.57
284.3 K, Crystal 1	147.9
285.15 K, Crystal 1	148.03
285.99 K, Crystal 1	148.24
286.83 K, Crystal 1	148.69
287.67 K, Crystal 1	148.8
288.49 K, Crystal 1	148.98
289.33 K, Crystal 1	149.33
290 K, Crystal 1	149.41
290.17 K, Crystal 1	149.55
291.01 K, Crystal 1	149.81
291.85 K, Crystal 1	149.83
292.69 K, Crystal 1	150.13
293.53 K, Crystal 1	150.52
294.38 K, Crystal 1	150.46
295.22 K, Crystal 1	150.72
296.07 K, Crystal 1	150.87
296.92 K, Crystal 1	151.22
297.77 K, Crystal 1	151.31
298.15 K, Crystal 1	151.49
298.61 K, Crystal 1	151.62
299.46 K, Crystal 1	152.1
300 K, Crystal 1	151.99
300.74 K, Crystal 1	152.16
302.38 K, Crystal 1	152.51
304 K, Crystal 1	152.9
305.63 K, Crystal 1	153.27
307.25 K, Crystal 1	153.72
308.87 K, Crystal 1	154.08
310 K, Crystal 1	154.4
310.45 K, Crystal 1	154.47
312.03 K, Crystal 1	154.86
313.62 K, Crystal 1	155.15
315.2 K, Crystal 1	155.56
316.77 K, Crystal 1	155.95
318.35 K, Crystal 1	156.34
319.87 K, Crystal 1	156.72
320 K, Crystal 1	156.81
321.41 K, Crystal 1	157.11
322.95 K, Crystal 1	157.43
324.49 K, Crystal 1	157.89
325.96 K, Crystal 1	158.18
327.48 K, Crystal 1	158.02
328.97 K, Crystal 1	158.76
330 K, Crystal 1	159.14
330.46 K, Crystal 1	159.4
331.95 K, Crystal 1	159.74
333.42 K, Crystal 1	160.19
334.89 K, Crystal 1	160.55
